Six compounds from US20250361485A1, “MODIFIED CD4+ T CELLS EXPRESSING IL-37 AND METHODS OF USE THEREOF” (The Regents of the University of Colorado, A Body Corporate, priority 2022, published 2025) can be followed below.

What all share (format): cell-based
In data set [1] the test system is FOXP3. Briefly: siRNA knockdown in primary human T cells, FOXP3 and marker expression. The settings on record: siRNA 48 h prior. As for the experimental part:
Purified primary human CD4+ T cells were used for siRNA knockdown of RUNX1, RPTOR, IL37, CREB1, CHK1, NLRP2, NLRP3, NLRP4, ASC, and NLRC4, and CD4+CD25+CD127^dim T cells for siRNA knockdown of FOXP3 and IL37. Cells were purified from healthy donor PBMCs as described above and then placed in culture in complete RPMI 1640 for at least 2 h prior to siRNA transfection via nucleofection using the Amaxa P3 Primary Cell 4D-Nucleofector X Kit L (Lonza) following the manufacturer's instructions. For the knockdown of RPTOR and IL-37, three different siRNAs (30 nM) against RPTOR and IL-37: A, B, and C (OriGene, Rockville, MD) were used separately or pooled, whereas for FOXP3 knockdown, only the pool of three different siRNAs (30 nM) against FOXP3: A, B, and C (OriGene) was used due to a limited number CD4+CD25+CD127^dim T cells. For the knockdown of NLRP3A, three to four siRNAs were pooled together, and for NLRC4 and NLRP4, Dharmacon SMARTpool was used. Single-sense and anti-sense siRNAs were used for NLRP2 and ASC (Ambion). Scrambled siRNA (OriGene, Ambion, and Dharmacon) was used as a control. Knockdowns were confirmed 24 hours after nucleofection by qRT-PCR or 48 hours later by western blot, and the relative density of the protein bands was determined using FIJI. […]

For the next data set, the system named is p-SMAD3 S208. As to the kind of experiment: Immunoblotting of cytoplasmic and nuclear proteins of human Treg cells after flavopiridol. The settings on record: immunoblot. As for the experimental part:
For immunoblot analysis, cells were lysed in RIPA buffer (50 mM Tris-HCL pH 7.4, 150 mM NaCl, 1 mM PMSF, 1 mM EDTA, 5 μg/ml Aprotinin, […] Leupeptin, 1% Triton x-100, 1% Sodium deoxycholate, 0.1% SDS) (Sigma-Aldrich). For IP of Smad3, cells were lysed in Pierce® IP Lysis Buffer (Thermo) and prepared using the Thermo Immunoprecipitation containing Dynabeads™ Protein G kit according to the manufacturer's instructions. The Smad3 IP was performed using the rabbit monoclonal antibody against Smad3 (C67H9) (Thermo). Hsp90 IP using mouse monoclonal antibody against Hsp90 (610418) (BD Biosciences). 20 μg of sample was run on a 4-15% Mini-Protean TGX precast gel (Bio-Rad) and then transferred overnight at 4° C. and 30 V to a PVDF membrane using a Bio-Rad Trans-Blot® transfer cell. Following 1 h of blocking with blocking buffer (5% milk/Tween 20 in TBS), membranes were incubated with primary antibody overnight at 4° C. For siRNA knockdown blots, mouse β-actin monoclonal antibody (Sigma-Aldrich) at a dilution of 1:10,000 was used for the loading control. For Smad3 IP, rabbit anti-human IL-37 (IL-1F7) polyclonal antibody (Invitrogen, Thermo) at a dilution of 1:1000 was used to detect IL37. HRP-conjugated anti-rabbit (1:5000) and anti-mouse IgG (1:5000) were purchased from Sigma-Aldrich. The SuperSignal West Pico Kit (Thermo Fisher) was used according to the manufacturer's instructions for the chemiluminescent detection of the proteins. Protein expression was further analyzed by measuring the relative densities using FIJI (National Institutes of Health: http://rsb.info.nih.gov/ij/) or LI-COR Image Studio™ Software.
Therefore, cytoplasmic and nuclear proteins of primary human Treg cells was scrutinized following flavopiridol treatment to ascertain if p-SMAD3 S208 is essential for the nuclear localization of SMAD3 and IL-37.
On the technique in general: Immunoblotting shows a protein as a band on a membrane.

Data set [2] concerns FOXP3. Briefly: FOXP3 expression in human Treg / CD4+ T cells treated with SMAD3 inhibitors. The settings on record: for FOXP3 mRNA expression: purified human Treg cells. An excerpt:
p-SMAD3 […]/425 is recognized for its involvement in TGFβ signaling. […] Given the essential role of SMAD3 phosphorylation in nuclear localization and transcriptional activity controlling other genes, the phosphorylation status and its association with IL-37 in human Treg cells was examined (FIG. 24A). Inhibitors of […]/425 sites (SIS3) and […]/[…] sites (flavopiridol) were utilized to determine if they could decrease FOXP3 mRNA expression and disrupt the SMAD3/IL-37 interaction. […] These findings also point to a crucial interplay between p-SMAD3 […] and IL-37 in orchestrating the transcriptional regulation of FOXP3 in human Treg cells.

The subject of a further data set is caspase-1. As to the kind of experiment: Caspase-1 inhibition in human Treg / CD4+ T cells. The settings on record: 50 μM. The procedure:
For proximity ligation assay (PLA) experiments, after primary antibodies were washed out, cells were incubated for 1 h at 37° C. with an anti-rabbit PLUS probe (1:5 dilution; Duo92002; Sigma-Aldrich) anti-mouse MINUS probe (1:5 dilution; Duo92004; Sigma-Aldrich) and were washed two times with wash buffer A. Probes were then ligated for 30 min at 37° C. and washed two times in Buffer A and were amplified for 100 min at 37° C. in the dark with polymerase (Sigma-Aldrich). For flow-based PLA (Sigma-Aldrich), after amplification, cells were treated with 1× green detection buffer for 30 min at 37° C., then washed 2× with PLA wash buffer and prepared for flow analysis. After 2 washes with 1× Buffer B (Thermo Fisher), each well was added with ProLong™ Gold antifade reagent (Thermo Fisher) containing DAPI nuclear stain. Images were obtained with an Olympus FV1000 FCS/RICS system (Olympus, Tokyo, Japan). For analysis, 7 different 100×/1.4 Oil Plan-Apochromatic objective fields of view were imaged per well per experiment. Each field was measured for IL-37 fluorescence intensity using the FIJI measurement application. To analyze the cytoplasmic vs. nuclear localization of IL-37 within the T cells, DAPI and IL-37 overlapped images was used. Along with single-slice full field images, […] slice z-stack images were taken to confirm cytoplasmic vs. nuclear localization of IL-37. Colocalization of IL-37 and DAPI was assessed by Pearson's correlation coefficient using FIJI. Line intensity profiles were created using a Plot profile in FIJI to measure differences in fluorescence across a cell by drawing a line spanning the diameter of the cell, and then the staining intensity measurements across the line were then entered into Prism 8 (GraphPad, Lo Jolla, CA). 3D fluorescent maps were created using a Surface plot in FIJI.
Purified lymphocytes from either humans or mice were washed with FACS buffer (5% BSA (Sigma-Aldrich) and 1×PBS), and then prepared for surface or intracellular staining, as described (Osborne and Wetzel, 2012). For surface staining, 1 μg or the manufacturer-recommended amounts of fluorescently conjugated antibody specific to the surface marker to be visualized was added to 1×10^6 cells resuspended in 100 μl of FACS buffer for 30 min at 4° C., then washed 2× with FACS buffer prior to being either analyzed or further processed. […] For measuring proliferation, cells were stained with 5-μM CFSE (Molecular Probes, Eugene, OR) prior to cell culture and analyzed using flow cytometry. […]

The next data set relates to human Treg cells. Briefly: CD25+FOXP3+ frequency in human Treg cells cultured with IL-6. The settings on record: anti-TCR/CD28, IL-6 20 ng/ml. The procedure: Purified lymphocytes from either humans or mice were washed with FACS buffer (5% BSA (Sigma-Aldrich) and 1×PBS), and then prepared for surface or intracellular staining, as described (Osborne and Wetzel, 2012). For surface staining, 1 μg or the manufacturer-recommended amounts of fluorescently conjugated antibody specific to the surface marker to be visualized was added to 1×10^6 cells resuspended in 100 μl of FACS buffer for 30 min at 4° C., then washed 2× with FACS buffer prior to being either analyzed or further processed. For intracellular cytokine staining (ICS), the FOXP3 Cytoperm/Cytofix staining kit (BD Pharmingen, San Diego, CA) was used after cells were stimulated for 24 h on 1 μg/ml anti-CD3-coated plates with soluble 1 μg/ml anti-CD28 antibody or anti-CD3/CD28 conjugated Dynabeads™ (Gibco, Thermo Fisher). For measuring proliferation, cells were stained with 5-μM CFSE (Molecular Probes, Eugene, OR) prior to cell culture and analyzed using flow cytometry. Flow-based measurement of caspase-1 activation was done using the FAM-FLICA® Caspase-1 Assay kit #98 following the manufacturer's instructions (ImmunoChemistry Tech, Bloomington, MN). […] All acquisitions were performed on a Galios® or Galios® 561 cytometer equipped with Kaluza software (Beckman-Coulter, Indianapolis, IN), and all data were analyzed with FlowJo_V10 software (Tree Star, Ashland, OR).

For “CREB1: siRNA against CREB1 (Ambion), SEQ ID NO: 8-9 (chain 1 CCGUAACUCUAGUACAGCU; chain 2 AGCUGUACUAGAGUUACGG; listed as RNA, chemistry not given here)”, the “frequency of FOXP3+ T cells in CD4+ T cells after knockdown” value in the data set on FOXP3 [1] is “significant decline”.
For `CN1CC[C@H](c2c(O)cc(O)c3c(=O)cc(-c4ccccc4Cl)oc23)[C@H](O)C1` [flavopiridol], in the data set with p-SMAD3 S208, the “expression of IL-37 in the nucleus” value is listed as “abolished”, the “nuclear SMAD3 levels” value is reported as “lowered”, the “nuclear levels of FOXP3” value is on record as “reduced” and the “p-SMAD3 S208” value is “diminished”. Also, the “FOXP3 protein expression, fold decrease compared to control cells” value in the data set with FOXP3 [2] (primary human CD4+ T cells, not rescued by TGF-β) is recorded as about 2 fold. Besides, the “FOXP3 mRNA expression” value in the data set on FOXP3 [2] is on record as “almost completely obliterated”.
Regarding `COc1cc2c(cc1OC)CN(C(=O)/C=C/c1c(-c3ccccc3)n(C)c3ncccc13)CC2` [SIS3], the FOXP3 protein expression entry in the data set on FOXP3 [2] (primary human CD4+ T cells) is listed as “did not significantly decrease”. In addition, the “FOXP3 mRNA expression” value in the data set on FOXP3 [2] is given as “did not significantly alter”.
For Ac-YVAD-CMK, in the data set with caspase-1 (human CD4+ T cells), the “FOXP3 mRNA and protein expression” value was “reduction”. Besides, in the data set with caspase-1 (human Treg cells), the “decrease of interaction between IL-37 and p-SMAD3 S208” value was 36.5%. Besides, the IL-37 subcellular localization result in the data set on caspase-1 (human Treg cells, 24 h) is listed as “shift of IL-37 localization from the nucleus to the perinuclear region of the cytoplasm”. Besides, the IL-37 expression entry in the data set with caspase-1 (human Treg cells, 48 h) is on record as “without alteration”.
Regarding “RUNX1: siRNA against RUNX1 (Ambion), SEQ ID NO: 34-35 (chain 1 AGAACCAGGUUGCAAGAUU; chain 2 AAUCUUGCAACCUGGUUCU; listed as RNA, chemistry not given here)”, the “frequency of FOXP3+ T cells in CD4+ T cells after knockdown” value in the data set on FOXP3 [1] is listed as “significant decline”.
Turning to “IL-6: IL-6 (Peprotech), 20 ng/ml, added as inflammatory stimulus to Treg cultures”, the entries for the “decrease in frequency of CD25+FOXP3+ cells” value with human Treg cells (gated IL37hi human Treg cells) and in the data set on human Treg cells (gated IL-37lo human Treg cells) were “no such reduction” and 34%, respectively.
